Key:
[1] = target: dopamine D3 receptor (hD3) (Homo sapiens, UniProt P35462); experiment: radioligand saturation binding
[2] = target: dopamine D3 receptor (rD3) (Rattus norvegicus, UniProt P19020); experiment: radioligand saturation binding
[3] = target: dopamine D3 receptor (Macaca mulatta, UniProt F6U709); experiment: radioligand saturation binding by quantitative autoradiography on brain sections
dopamine D3 receptor, sequence (F6U709 1-400): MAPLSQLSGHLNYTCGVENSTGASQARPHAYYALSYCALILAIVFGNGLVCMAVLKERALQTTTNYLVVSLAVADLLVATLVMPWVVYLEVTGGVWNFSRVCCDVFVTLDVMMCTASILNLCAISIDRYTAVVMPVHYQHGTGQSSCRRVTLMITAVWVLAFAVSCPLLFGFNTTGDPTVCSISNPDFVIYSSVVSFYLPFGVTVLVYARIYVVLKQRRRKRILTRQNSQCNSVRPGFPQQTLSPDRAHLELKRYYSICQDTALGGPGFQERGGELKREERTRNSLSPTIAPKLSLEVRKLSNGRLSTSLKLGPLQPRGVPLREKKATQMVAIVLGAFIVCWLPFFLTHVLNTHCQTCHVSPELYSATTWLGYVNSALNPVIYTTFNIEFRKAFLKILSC

dopamine D3 receptor (rD3), sequence (P19020 whole entry): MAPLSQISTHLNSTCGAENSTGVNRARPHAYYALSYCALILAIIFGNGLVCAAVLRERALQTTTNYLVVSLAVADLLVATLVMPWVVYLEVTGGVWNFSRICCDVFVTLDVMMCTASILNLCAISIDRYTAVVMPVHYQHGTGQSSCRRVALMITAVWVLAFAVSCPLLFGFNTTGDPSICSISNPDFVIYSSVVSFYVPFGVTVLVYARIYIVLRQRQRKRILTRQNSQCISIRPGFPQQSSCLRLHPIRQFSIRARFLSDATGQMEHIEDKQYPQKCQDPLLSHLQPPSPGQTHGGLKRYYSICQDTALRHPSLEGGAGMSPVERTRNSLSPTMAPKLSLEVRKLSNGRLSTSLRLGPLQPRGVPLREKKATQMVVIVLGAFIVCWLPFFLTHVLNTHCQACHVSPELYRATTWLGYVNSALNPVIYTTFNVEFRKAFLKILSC
dopamine D3 receptor (hD3), sequence (P35462 whole entry): as the sequence (F6U709 1-400) above, with P3S, V17A, V101I, T151A, R247P, R281K counted along it

Structure (SMILES) | Kd [1] [nM] | Kd [2] [nM] | Kd [3] [nM]
CCN1CCC[C@H]1CNC(=O)c1c(O)c(Cl)cc(Cl)c1OC [[^3H]raclopride] | 18 ± 1 | 17.1 ± 1.7 | 
COc1ccccc1N1CCN(CCCCNC(=O)c2ccc(N(C)C)cc2)CC1 [WC-10, 4-(Dimethylamino)-N-(4-(4-(2-methoxyphenyl)piperazin-1-yl)butyl)benzamide] |  |  | 1.1
